Source: the supplement of paper PMC8149375

Legend:
Settings in all cases: treatment: drug + dasatinib (fixed dose, not stated); 5 days
A498 [1] = assay: minimum viability across doses, drug + dasatinib, relative to DMSO (fraction); higher = less growth inhibition
Experimental: (§1)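 Primary HTS combination arm: 8 RCC cell lines treated with 8 doses (up to 10 uM) of each library drug plus a fixed dose of dasatinib (dose not stated) for 5 days; viability read by CellTiter-Glo and normalised to DMSO. GI50 was fitted with XLfit, AUC is the area under the dose-response curve, and minimum viability is the lowest fraction of DMSO viability across doses.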

SN12C [2] = assay: as above
Experimental: as §1

UO-31 [3] = assay: as above
Experimental: as §1

ACHN [4] = assay: as above
Experimental: as §1

769-P [5] = assay: as above
Experimental: as §1

CAKI-1 [6] = assay: as above
Experimental: as §1

786-O [7] = assay: as above
Experimental: as §1

TK-10 [8] = assay: as above
Experimental: as §1

A498 [9] = assay: GI50 of drug in presence of dasatinib; higher = less potent
Experimental: as §1

SN12C [10] = assay: as above
Experimental: as §1

UO-31 [11] = assay: as above
Experimental: as §1

ACHN [12] = assay: as above
Experimental: as §1

769-P [13] = assay: as above
Experimental: as §1

CAKI-1 [14] = assay: as above
Experimental: as §1

786-O [15] = assay: as above
Experimental: as §1

TK-10 [16] = assay: as above
Experimental: as §1

A498 [17] = assay: AUC of dose-response viability curve, drug + dasatinib, normalised to DMSO (arbitrary (AUC of normalised viability)); higher = less growth inhibition
Experimental: as §1

SN12C [18] = assay: as above
Experimental: as §1

UO-31 [19] = assay: as above
Experimental: as §1

ACHN [20] = assay: as above
Experimental: as §1

769-P [21] = assay: as above
Experimental: as §1

CAKI-1 [22] = assay: as above
Experimental: as §1

786-O [23] = assay: as above
Experimental: as §1

TK-10 [24] = assay: as above
Experimental: as §1

Structure (SMILES) | minimum viability across doses (A498 [1]) | minimum viability across doses (SN12C [2]) | minimum viability across doses (UO-31 [3]) | minimum viability across doses (ACHN [4]) | minimum viability across doses (769-P [5]) | minimum viability across doses (CAKI-1 [6]) | minimum viability across doses (786-O [7]) | minimum viability across doses (TK-10 [8]) | GI50 of drug (A498 [9]) [µM] | GI50 of drug (SN12C [10]) [µM] | GI50 of drug (UO-31 [11]) [µM] | GI50 of drug (ACHN [12]) [µM] | GI50 of drug (769-P [13]) [µM] | GI50 of drug (CAKI-1 [14]) [µM] | GI50 of drug (786-O [15]) [µM] | GI50 of drug (TK-10 [16]) [µM] | AUC of dose-response viability curve (A498 [17]) | AUC of dose-response viability curve (SN12C [18]) | AUC of dose-response viability curve (UO-31 [19]) | AUC of dose-response viability curve (ACHN [20]) | AUC of dose-response viability curve (769-P [21]) | AUC of dose-response viability curve (CAKI-1 [22]) | AUC of dose-response viability curve (786-O [23]) | AUC of dose-response viability curve (TK-10 [24])
CC(C)n1nc(-c2ccc3oc(N)nc3c2)c2c(N)ncnc21 [INK 128] + Cc1nc(Nc2ncc(C(=O)Nc3c(C)cccc3Cl)s2)cc(N2CCN(CCO)CC2)n1 [dasatinib] | 0.0897 | 0.0733 | 0.00639 | 0.0339 | 0.0625 | 0.0244 | 0.00403 | 0.0156 | 0.0338 | 0.0131 | 0.0138 | 0.00303 | 0.0147 | 0.00918 | 0.00488 | 0.00996 | 1.19 | 0.931 | 0.741 | 0.554 | 0.95 | 0.693 | 0.59 | 0.838
CS(=O)(=O)O.Cc1ccc(NC(=O)c2ccc(CN3CCN(C)CC3)cc2)cc1Nc1nccc(-c2cccnc2)n1 [Imatinib Mesylate] + Cc1nc(Nc2ncc(C(=O)Nc3c(C)cccc3Cl)s2)cc(N2CCN(CCO)CC2)n1 [dasatinib] | 0.945 | 0.688 | 0.683 | 0.595 | 0.562 | 0.603 | 0.584 | 0.666 | > 10 | > 10 | > 10 | > 10 | > 10 | > 10 | > 10 | > 10 | 3.53 | 2.49 | 3.49 | 2.48 | 2.34 | 2.36 | 2.69 | 2.85
O=C(c1ccc(/C=C/c2n[nH]c3ccccc23)cc1)N1CCNCC1 [KW 2449] + Cc1nc(Nc2ncc(C(=O)Nc3c(C)cccc3Cl)s2)cc(N2CCN(CCO)CC2)n1 [dasatinib] | 0.521 | 0.0456 | 0.0258 | 0.159 | 0.162 | 0.15 | 0.425 | 0.611 | > 10 | 1.24 | 3.52 | 0.0785 | 2.78 | 2.54 | 8.58 | > 10 | 3.27 | 2.05 | 3.7 | 1.64 | 2.33 | 2.03 | 2.58 | 2.89
O=C(Cc1ccc(-c2ccc(OCCN3CCOCC3)cc2)cn1)NCc1ccccc1 [KX2-391] + Cc1nc(Nc2ncc(C(=O)Nc3c(C)cccc3Cl)s2)cc(N2CCN(CCO)CC2)n1 [dasatinib] | 0.166 | 0.114 | 0.00946 | 0.1 | 0.0616 | 0.111 | 0.00445 | 0.243 | 0.0776 | 0.0467 | 0.0926 | 0.0433 | 0.0359 | 0.0295 | 0.0149 | 0.104 | 1.78 | 1.34 | 1.77 | 1.23 | 1.09 | 1.12 | 0.764 | 1.69
COc1cc2nccc(Oc3ccc(NC(=O)Nc4ccc(F)cc4F)c(F)c3)c2cc1OC [Ki8751] + Cc1nc(Nc2ncc(C(=O)Nc3c(C)cccc3Cl)s2)cc(N2CCN(CCO)CC2)n1 [dasatinib] | 1.04 | 0.546 | 0.735 | 0.352 | 0.304 | 0.154 | 0.483 | 0.683 | > 10 | > 10 | > 10 | 1.28 | 1.09 | 1.41 | 8.55 | > 10 | 4.09 | 2.37 | 3.73 | 1.89 | 2.15 | 1.95 | 2.33 | 2.6
CS(=O)(=O)CCNCc1ccc(-c2ccc3ncnc(Nc4ccc(OCc5cccc(F)c5)c(Cl)c4)c3c2)o1.Cc1ccc(S(=O)(=O)O)cc1.Cc1ccc(S(=O)(=O)O)cc1 [Lapatinib Ditosylate (Tykerb)] + Cc1nc(Nc2ncc(C(=O)Nc3c(C)cccc3Cl)s2)cc(N2CCN(CCO)CC2)n1 [dasatinib] | 0.798 | 0.606 | 0.35 | 0.352 | 0.18 | 0.211 | 0.426 | 0.3 | > 10 | > 10 | 5.85 | 0.176 | 0.401 | 3.85 | 6.69 | 3.34 | 3.08 | 2.34 | 3.08 | 1.7 | 1.77 | 2.03 | 2.41 | 2.34
Nc1cccc2c1CN(C1CCC(=O)NC1=O)C2=O (stereo unspecified) [Lenalidomide (Revlimid)] + Cc1nc(Nc2ncc(C(=O)Nc3c(C)cccc3Cl)s2)cc(N2CCN(CCO)CC2)n1 [dasatinib] | 0.989 | 0.706 | 1.19 | 0.503 | 0.497 | 0.656 | 0.488 | 0.666 | > 10 | > 10 | > 10 | > 10 | > 10 | > 10 | < 0.003 | > 10 | 3.71 | 2.55 | 4.59 | 2.05 | 2.51 | 2.41 | 2.61 | 2.56
Cc1ccc(F)c(NC(=O)Nc2ccc(-c3cccc4[nH]nc(N)c34)cc2)c1 [Linifanib (ABT-869)] + Cc1nc(Nc2ncc(C(=O)Nc3c(C)cccc3Cl)s2)cc(N2CCN(CCO)CC2)n1 [dasatinib] | 0.279 | 0.312 | 0.729 | 0.244 | 0.27 | 0.213 | 0.557 | 0.231 | 9.11 | 1.87 | > 10 | 3.71 | 4 | 7.59 | > 10 | 3.45 | 3.28 | 2.25 | 3.5 | 2.4 | 2.33 | 2.21 | 2.63 | 2.58
C[C@]1(O)C[C@@H](c2nc(-c3ccc4ccc(-c5ccccc5)nc4c3)c3c(N)nccn32)C1 [Linsitinib (OSI-906)] + Cc1nc(Nc2ncc(C(=O)Nc3c(C)cccc3Cl)s2)cc(N2CCN(CCO)CC2)n1 [dasatinib] | 0.824 | 0.592 | 0.647 | 0.361 | 0.527 | 0.259 | 0.689 | 0.55 | > 10 | > 10 | > 10 | 2.97 | > 10 | 2.6 | > 10 | > 10 | 3.31 | 2.28 | 3.19 | 1.89 | 2.3 | 2.2 | 2.64 | 2.43
Cn1cnc(-c2cc3nccc(Oc4ccc(NC(=S)NC(=O)Cc5ccccc5)cc4F)c3s2)c1 [MGCD-265] + Cc1nc(Nc2ncc(C(=O)Nc3c(C)cccc3Cl)s2)cc(N2CCN(CCO)CC2)n1 [dasatinib] | 0.676 | 0.515 | 0.107 | 0.44 | 0.557 | 0.256 | 0.646 | 0.727 | > 10 | > 10 | 5.72 | 2.83 | > 10 | 3.63 | > 10 | > 10 | 3.49 | 2.38 | 3.44 | 2.13 | 2.39 | 2.21 | 2.64 | 2.82
CN(C[C@@H]1COCCO1)S(=O)(=O)Nc1ccc2ccc3ncc(-c4cnn(C)c4)cc3c(=O)c2c1 [MK-2461] + Cc1nc(Nc2ncc(C(=O)Nc3c(C)cccc3Cl)s2)cc(N2CCN(CCO)CC2)n1 [dasatinib] | 0.919 | 0.179 | 0.227 | 0.121 | 0.362 | 0.0412 | 0.638 | 0.287 | > 10 | > 10 | 5.33 | 0.0109 | 6.28 | 0.45 | > 10 | 2.91 | 4.48 | 2.14 | 5.47 | 1.23 | 2.49 | 1.71 | 4.08 | 2.19
O=C(O)[C@]1(Cc2cccc(Nc3nccs3)n2)CC[C@@H](Oc2cccc(Cl)c2F)CC1 [MK-5108 (VX-689)] + Cc1nc(Nc2ncc(C(=O)Nc3c(C)cccc3Cl)s2)cc(N2CCN(CCO)CC2)n1 [dasatinib] | 0.339 | 0.174 | 0.37 | 0.227 | 0.202 | 0.216 | 0.00534 | 0.372 | 1.99 | 0.944 | 4.08 | 0.0401 | 1.36 | 0.355 | 0.105 | 1.48 | 2.89 | 1.96 | 3.91 | 1.51 | 2.18 | 1.86 | 1.07 | 2.14
O=C(O)c1ccc(Nc2ncc3c(n2)-c2ccc(Cl)cc2C(c2c(F)cccc2F)=NC3)cc1 [MLN8054] + Cc1nc(Nc2ncc(C(=O)Nc3c(C)cccc3Cl)s2)cc(N2CCN(CCO)CC2)n1 [dasatinib] | 0.354 | 0.425 | 0.645 | 0.219 | 0.306 | 0.277 | 0.157 | 0.585 | 4.23 | 3.92 | > 10 | 0.398 | 1.19 | 0.641 | 0.641 | > 10 | 2.68 | 2.22 | 2.92 | 1.77 | 2.14 | 1.93 | 2.01 | 2.58
Cc1ccc(NC(=O)c2ccc(CN3CCN(C)CC3)cc2)cc1Nc1nc(-c2cccnc2)cs1 [Masitinib (AB1010)] + Cc1nc(Nc2ncc(C(=O)Nc3c(C)cccc3Cl)s2)cc(N2CCN(CCO)CC2)n1 [dasatinib] | 0.622 | 0.484 | 0.271 | 0.263 | 0.377 | 0.438 | 0.204 | 0.57 | > 10 | > 10 | 6.09 | 0.46 | 4.7 | 6.75 | 4.05 | > 10 | 3.05 | 2.51 | 3.05 | 1.96 | 2.3 | 2.28 | 2.55 | 2.71
